Patent publication US20260306460A1, “COMPOSITION FOR REMOVING AND INHIBITING SENESCENT CELLS, AND USES THEREOF” (LIFECEUTIX CO., LTD., priority 2023, published 2026)

Key:
Assay type in all cases: in vivo, mouse
SAMP8 mice = experiment: Cognitive impairment in SAMP8 mice (p16 mRNA, Y maze), Example 28, Table 52; details: for Spontaneous alternation: Y maze test, 8 minutes, untreated 48.4 (±27.3); for p16 mRNA: hippocampus, daily for 21 days, untreated 100%
Method: Twelve-week-old male SAMP8 mice (SLC), a cognitive impairment model, were acclimated to the experimental environment for one week and then randomly assigned to experimental and control groups. […] LX-2101 was mixed with 5% DMSO (Sigma) in PBS and administered intraperitoneally at a concentration of 10 mg/kg daily for 21 days. The control group received only the same volume of solution. After drug administration, the mice were tested in the Y maze test to analyze the degree of cognitive and memory improvement. The Y-maze test is a method to assess short-term memory-type spatial awareness. It is a Y-shaped enclosed maze made of black acrylic to the following specifications (40 cm in length, 8 cm in width, 13 cm in height, with each arm angled 120 degrees). Three arms are designated A, B, and C. A mouse is carefully placed on one arm and allowed to move freely for 8 minutes. The arm into which the mouse enters up to its tail is recorded in order. Each instance of entering each arm sequentially is awarded 1 point (actual alternation). Alternation behavior is defined as entering all arms without overlapping, and spontaneous alternation behavior is calculated using the following formula:
Spontaneous alternation behavior (%)=Actual alternation/Maximum alternation×100 • Maximum alternation: Total number of entries-2
After the behavioral evaluation, the mice were sacrificed, and RNA from the hippocampus region of the brain was extracted using the same method as Example 7-2 of WO2023-085787 A1, and qRT-PCR was performed using the synthesized cDNA.

[1] = tested on: naturally aged C57BL6J mice; experiment: Kidney damage markers (urea, creatinine, Agtr1a mRNA) in naturally aged mice, Example 21-9, Table 24; details: untreated aged = 100%; for Agtr1a mRNA (%): qRT-PCR; for Creatinine (%) / Urea (%): serum
Method: 22-month-old female C57BL6J mice (KRIBB Laboratory Animal Resource Center) were acclimated to the experimental environment for one week, after which the aged mice were randomly assigned to experimental and control groups. Eight-week-old, non-aged mice served as controls. LX-403 was mixed in a 10% ethanol solution of PEG400 and administered orally at a concentration of 25 mg/kg daily for 21 days, or administered to the skin, joints, or eyes at a concentration of 1 μM. LX-1801 was mixed in distilled water with 4% DMSO, 30% PEG300, and 5% Tween80 and administered to the skin, joints, or eyes at a concentration of 0.4 μM daily for 21 days. LX-2001 was mixed in PBS and administered to the skin, joints, or eyes at a concentration of […] daily for 21 days. LX-2002 was mixed in distilled water with 4% DMSO, 30% PEG300, and 5% Tween80 and administered to the skin, joints, or eyes at a concentration of 2 μM daily for 21 days. […] LX-2005 was mixed in distilled water with 4% DMSO, 30% PEG300, and 5% Tween80 and administered to the skin, joints, or eyes at a concentration of 90 μM daily for 21 days. LX-2007 was mixed in distilled water with 4% DMSO, 30% PEG300, and 5% Tween80 and administered to the skin, joints, or eyes at a concentration of 90 μM daily for 21 days. […] LX-3002 was mixed in distilled water with 4% DMSO, 30% PEG300, and 5% Tween80 and administered orally at a concentration of 10 mg/kg daily for 21 days. […] LX-5411 was mixed in 5% PBS and administered orally at a concentration of 10 mg/kg daily for 21 days or administered to the skin, joints, or eyes at a concentration of 3 μM. LX-5701 was mixed in PBS and administered orally at a concentration of 360 mg/kg daily for 21 days. LX-6807 was mixed in saline and administered intraperitoneally at a concentration of 1 mg/kg daily for 21 days. LX-2101 or LX-2102 was mixed in PBS solution with 5% DMSO and administered intraperitoneally at a concentration of 20 mg/kg or 10 mg/kg, respectively, daily for 21 days. The control group received only the solution in the same volume. After the end of drug administration, the methods described in each example below were performed.
The levels of urea and creatinine, markers of kidney damage, in serum collected from mice were measured spectrophotometrically using kits (BioAssay Systems and Sigma). Additionally, the amount of Agtr1a mRNA, a marker of kidney damage, was measured using qRT-PCR as described in Example 7-2 of WO2023-085787 A1. […] The amount of each factor after aging was calculated as 100% and compared with the amount of each factor after test compound treatment.

[2] = tested on: carbon tetrachloride-induced liver fibrosis C57BL6J mice; experiment: Carbon tetrachloride liver disease in mice (p16, IL6, Col1a1 mRNA, AST), Example 26, Table 50; details: daily for 21 days, untreated 100%; for Col1a1 mRNA / IL6 mRNA / p16 mRNA: liver
Method: Eight-week-old male C57BL6J mice (KRIBB Laboratory Animal Resource Center) were acclimated to the experimental environment for one week. Carbon tetrachloride (CCL4) was administered intraperitoneally at a concentration of 0.5 μl/g, and aging was induced for at least six weeks. The aging-induced mice were randomly assigned to experimental and control groups. […] The control group received only the solution in the same volume. After the drug administration was terminated, mice were sacrificed, and RNA was extracted from the liver in the same manner as in Example 7-2 of WO2023-085787 A1, and qRT-PCR was performed using the synthesized cDNA. […] The mRNA and AST amounts after aging was induced were calculated as 100% and compared with the mRNA amount of p16 after treatment with the test compound.

[3] = tested on: bleomycin-induced pulmonary fibrosis mice; experiment: Bleomycin-induced pulmonary fibrosis mice, Example 31, Table 56; details: untreated = 100%
Procedure, shortened: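 Mice with bleomycin-induced pulmonary fibrosis, untreated or given test compound, with vehicle-only controls. Lung tissue collected for RNA extraction and qRT-PCR analysis.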

CC1(C)CC[C@]2(NC(=O)C(C)(F)F)CC[C@]3(C)[C@H](C(=O)C=C4[C@@]5(C)C=C(C#N)C(=O)C(C)(C)[C@@H]5CC[C@]43C)[C@@H]2C1 [LX-2101, Omaveloxolone]
Spontaneous alternation (SAMP8 mice): 51.1 (±16.8) %
p16 mRNA (SAMP8 mice): 82 (±7.1) %

CCCC\C=C/C=C/C=C\CCCCCCCC(=O)O [LX-2707, Punicic acid]
Agtr1a mRNA (%) [1]: 68 (±3.3) %
Creatinine (%) [1]: 73 (±4.3) %
Urea (%) [1]: 78 (±3.1) %
Spontaneous alternation (SAMP8 mice): 54.5 (±2.0) %
p16 mRNA (SAMP8 mice): 75 (±3.3) %
Col1a1 mRNA [2]: 76 (±2.5) %
IL6 mRNA [2]: 56 (±2.1) %
p16 mRNA [2]: 68 (±1.6) %
Serum AST [2]: 79 (±5.6) %

C[C@@H]1CC[C@@]23C[C@H](O)C(=O)[C@@]2(O)[C@]1(C)[C@H](OC(=O)CCl)C[C@@H](C1=CCn2c(=O)n(-c4ccccc4)c(=O)n2C1)[C@@H]3C [LX-1801, (2S,3aS,4S,5R,7R,8S,8aS,11R)-7-(1,3-Dioxo-2-phenyl-2,3,5,8-tetrahydro-1H-[1,2,4]triazolo[1,2-a]pyridazin-6-yl)-2,3a-dihydroxy-4,8,11-trimethyl-3-oxooctahydro-1H-4,8a-propanoazulen-5-yl 2-Chloroacetate]
Lung p16 mRNA [3]: 53 (±13.7) %
Col1a1 mRNA [3]: 38 (±20.8) %

C#CC(=O)N1[C@@H](CCCC)Cc2cc(OC)ccc2[C@@H]1c1ccc(NC23CC4CC(CC(C4)C2)C3)cc1 [LX-5411]
Lung p16 mRNA [3]: 61 (±13.2) %
Col1a1 mRNA [3]: 44 (±11.1) %

O=C1C2CCN(CC2)C1CNC(=O)C(F)(F)F (stereo not drawn) [LX-5701]
Agtr1a mRNA (%) [1]: 44 (±2.3) %
Creatinine (%) [1]: 68 (±6.3) %
Urea (%) [1]: 71 (±4.0) %
Spontaneous alternation (SAMP8 mice): 62.7 (±11.9) %
p16 mRNA (SAMP8 mice): 70 (±9.6) %
Col1a1 mRNA [2]: 62 (±6.7) %
IL6 mRNA [2]: 53 (±17.6) %
p16 mRNA [2]: 70 (±6.2) %
Serum AST [2]: 77 (±8.0) %

COC(=O)[C@H]1Cc2c([nH]c3ccccc23)[C@H](c2ccc(S(C)(=O)=O)cc2)N1C(=O)CCl [LX-5401, methyl (1S,3R)-2-(2-chloroacetyl)-1-(4-(methylsulfonyl)phenyl)-2,3,4,9-tetrahydro-1H-pyrido[3,4-b]indole-3-carboxylate]
Lung p16 mRNA [3]: 67 (±8.1) %
Col1a1 mRNA [3]: 59 (±12.8) %

O=C(C(C[N+](=O)[O-])=NO)N1CCN(C(c2ccc(Cl)cc2)c2ccc(Cl)cc2)CC1 [LX-403]
Lung p16 mRNA [3]: 32 (±1.4) %
Col1a1 mRNA [3]: 44 (±3.1) %

S=C(N/N=C1\CCCc2cccnc21)N1CCN(c2ccccn2)CC1 [LX-801]
Lung p16 mRNA [3]: 48 (±4.8) %
Col1a1 mRNA [3]: 43 (±10.6) %

Tocofersolan [LX-3001]
Agtr1a mRNA (%) [1]: 61 (±2.0) %
Creatinine (%) [1]: 75 (±3.2) %
Urea (%) [1]: 81 (±5.4) %
Spontaneous alternation (SAMP8 mice): 50.6 (±3.6) %
p16 mRNA (SAMP8 mice): 64 (±2.8) %
Col1a1 mRNA [2]: 71 (±2.4) %
IL6 mRNA [2]: 65 (±3.4) %
p16 mRNA [2]: 76 (±3.7) %
Serum AST [2]: 82 (±4.5) %

Cc1cccc([C@H](C)c2cnc[nH]2)c1C [LX-6807, Dexmedetomidine]
Agtr1a mRNA (%) [1]: 37 (±4.0) %
Creatinine (%) [1]: 57 (±2.0) %
Urea (%) [1]: 68 (±2.7) %
Spontaneous alternation (SAMP8 mice): 60.7 (±4.3) %
p16 mRNA (SAMP8 mice): 39 (±6.2) %
Col1a1 mRNA [2]: 51 (±3.1) %
IL6 mRNA [2]: 58 (±2.6) %
p16 mRNA [2]: 67 (±3.0) %
Serum AST [2]: 75 (±1.4) %
